Laboratory results taken from patent US20220242872A1, “E3 LIGASE BINDERS AND USES THEREOF” (DANA-FARBER CANCER INSTITUTE, INC., priority 2019, published 2022).
“Also recorded” adds a separate entry of the source.

Experiments:
IKZF1 [1] = target: T1, IKZF1 (Homo sapiens, UniProt Q13422+Q96SW2); test: Degradation of IKZF upon 24 hours treatment (FIG. 3); assay type: cell-based; set-up: endogenous in cells; details: 293T WT cells (legend also says Jurkat WT)
Procedure: (§1) The results of an assay for CRBN binding (and degradation of IKZF or actin) upon treatment for 24 hours with exemplary compounds Qi-01-68, JADA53, and positive control lenalidomide (at the indicated concentrations in μM) in 293T WT cells (homo sapiens kidney cell line; wild type) are shown in FIG. 3.

CRBN [2] = target: T2, CRBN (Homo sapiens, UniProt Q96SW2); test: Assay for CRBN binding in the cell, 24 hours treatment (FIG. 3); assay type: cell-based; set-up: endogenous in cells; details: 293T WT cells (legend also says Jurkat WT)
Procedure: as §1

IKZF3 = target: T3, IKZF3 (Homo sapiens, UniProt Q96SW2+Q9UKT9); test: 24 hour IKZF Western Blot in Jurkat cells (FIG. 5), IKZF3; assay type: cell-based
T3 construct: endogenous in cells; host or cells: Jurkat
Procedure: (§2) Exemplary close analogues had low activity against CRBN (FIG. 4). For the IKZF Western Blot, the cell is Jurkat, the exemplary compounds for treatment are JADA3, 32, 53, and lenalidomide, and the time point is 24 hours (FIG. 5).
(§3) Conditions for Western blot:
(§4) Jurkat cells were seeded in 6 well plates, followed by the compound treatment for 24 hours. Primary and secondary antibodies used included anti-IKZF1 at 1:1000 dilution, anti-IKZF2 at 1:1,000 dilution, anti-IKZF3 at 1:1000 dilution, anti-ACTIN at 1:5,000 dilution, IRDye®680 Donkey anti-mouse at 1:5,000 dilution (926-68072, LiCor®, Lot: C61116-05) and IRDye®800 Goat anti-rabbit at 1:5,000 dilution (926-32211, LiCor®, Lot: C70301-05).

IKZF1 [3] = target: T1, IKZF1; test: 24 hour IKZF Western Blot in Jurkat cells (FIG. 5), IKZF1; assay type: cell-based; set-up: endogenous in cells; host or cells: Jurkat
Procedure: as §2, §3, §4

CRBN [4] = target: T2, CRBN; test: CRBN Fluorescence Polarization (FP) displacement assay; assay type: binding; set-up: His6 (N); details: displacement of Atto565-lenalidomide from DDB1ΔB-CRBN; FIGS. 1, 4, 6A, 7
Procedure: Conditions for CRBN Fluorescence Polarization (FP) displacement assay: Atto565-conjugated lenalidomide (10 nM) was mixed with increasing concentration of purified his6-DDB1AB-his6—CRBN (10 μM final top concentration, 2-fold, 23-point dilution and DMSO control) in 384-well microplates (Corning, 4514) and incubated for 15 minutes (min) at room temperature (rt). The change in fluorescence polarization was monitored using a PHERAstar® FS microplate reader (BMG Labtech) for 20 min in 120 s cycles. The Atto565-lenalidomide bound fraction was calculated and the Kd was obtained from a fit in GraphPad Prism 7. Compounds in Atto565-Lenalidomide displacement assay were dispensed in a 384-well microplate (Corning®, 4514) using D300e Digital Dispenser (HP) normalized to 2% DMSO into 10 nM Atto565-Leanlidomide, 100 nM DDB1ΔB-CRBN, 50 mM Tris pH 7.5, 200 mM NaCl, 0.1% Pluronic® F-68 solution (Sigma), 0.5 mg/ml BSA (Sigma) containing 2% DMSO (4% DMSO final). The change in fluorescence polarization was monitored using a PHERAstar® FS microplate reader (BMG Labtech) for 20 min in 200 s cycles. IC50 values estimated using variable slope equation in GraphPad Prism 7.

T1 sequence (Q13422 whole entry): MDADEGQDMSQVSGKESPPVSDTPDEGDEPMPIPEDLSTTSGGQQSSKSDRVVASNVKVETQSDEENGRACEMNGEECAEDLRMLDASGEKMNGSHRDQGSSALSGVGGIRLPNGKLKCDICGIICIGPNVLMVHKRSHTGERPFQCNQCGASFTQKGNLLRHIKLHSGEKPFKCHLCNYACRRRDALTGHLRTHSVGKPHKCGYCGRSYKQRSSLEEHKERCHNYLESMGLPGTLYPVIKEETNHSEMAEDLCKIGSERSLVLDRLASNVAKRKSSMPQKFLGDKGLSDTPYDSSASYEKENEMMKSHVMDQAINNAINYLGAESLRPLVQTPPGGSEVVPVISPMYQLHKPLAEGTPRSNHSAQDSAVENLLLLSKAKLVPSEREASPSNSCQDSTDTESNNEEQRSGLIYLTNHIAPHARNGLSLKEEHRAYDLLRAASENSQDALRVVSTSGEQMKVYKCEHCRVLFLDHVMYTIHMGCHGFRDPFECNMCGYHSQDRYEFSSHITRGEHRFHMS
T1 sequence (Q96SW2 whole entry): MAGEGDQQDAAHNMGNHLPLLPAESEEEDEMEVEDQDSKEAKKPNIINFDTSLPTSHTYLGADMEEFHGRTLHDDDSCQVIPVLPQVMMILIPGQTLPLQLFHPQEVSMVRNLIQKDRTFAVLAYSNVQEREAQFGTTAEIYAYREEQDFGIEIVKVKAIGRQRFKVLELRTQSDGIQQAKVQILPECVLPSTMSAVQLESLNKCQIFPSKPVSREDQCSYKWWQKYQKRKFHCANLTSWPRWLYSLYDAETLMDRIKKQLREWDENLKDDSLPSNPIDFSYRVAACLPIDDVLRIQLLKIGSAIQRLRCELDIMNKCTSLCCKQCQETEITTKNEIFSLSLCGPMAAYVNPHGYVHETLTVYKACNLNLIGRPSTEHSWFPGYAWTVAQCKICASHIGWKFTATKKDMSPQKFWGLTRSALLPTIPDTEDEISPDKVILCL
T1 sequence (Q16531 whole entry partner): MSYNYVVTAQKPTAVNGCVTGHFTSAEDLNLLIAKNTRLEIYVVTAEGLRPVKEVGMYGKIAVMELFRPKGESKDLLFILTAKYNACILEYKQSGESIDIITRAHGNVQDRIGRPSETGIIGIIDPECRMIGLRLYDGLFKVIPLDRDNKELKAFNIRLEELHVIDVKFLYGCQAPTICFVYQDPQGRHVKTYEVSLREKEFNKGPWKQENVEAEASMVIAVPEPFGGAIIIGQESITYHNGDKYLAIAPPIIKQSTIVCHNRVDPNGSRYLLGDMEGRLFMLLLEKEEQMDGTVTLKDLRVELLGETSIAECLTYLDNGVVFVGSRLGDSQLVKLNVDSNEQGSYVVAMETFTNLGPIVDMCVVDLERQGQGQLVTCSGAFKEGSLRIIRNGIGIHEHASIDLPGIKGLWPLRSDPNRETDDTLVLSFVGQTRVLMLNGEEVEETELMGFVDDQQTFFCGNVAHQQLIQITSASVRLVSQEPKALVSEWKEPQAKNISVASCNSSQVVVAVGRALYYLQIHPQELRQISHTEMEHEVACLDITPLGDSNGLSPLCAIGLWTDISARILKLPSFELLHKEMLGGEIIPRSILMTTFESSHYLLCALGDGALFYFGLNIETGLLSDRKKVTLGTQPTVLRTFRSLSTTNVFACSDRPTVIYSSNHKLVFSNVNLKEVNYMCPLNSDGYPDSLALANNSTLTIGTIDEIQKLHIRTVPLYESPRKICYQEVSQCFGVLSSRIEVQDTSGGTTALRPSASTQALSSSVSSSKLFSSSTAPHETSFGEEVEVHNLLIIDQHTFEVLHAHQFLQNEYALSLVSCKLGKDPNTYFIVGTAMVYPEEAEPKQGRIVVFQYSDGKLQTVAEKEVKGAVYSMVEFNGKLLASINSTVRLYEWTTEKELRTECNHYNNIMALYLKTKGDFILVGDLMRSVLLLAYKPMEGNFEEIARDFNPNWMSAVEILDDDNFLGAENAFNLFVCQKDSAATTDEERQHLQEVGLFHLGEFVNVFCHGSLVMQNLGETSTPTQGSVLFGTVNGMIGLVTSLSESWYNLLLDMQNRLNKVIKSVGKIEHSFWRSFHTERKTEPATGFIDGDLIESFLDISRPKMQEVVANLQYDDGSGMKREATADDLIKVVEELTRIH
T2 sequence (Q96SW2 whole entry): as the sequence (Q96SW2 whole entry) above
T3 sequence (Q9UKT9 whole entry): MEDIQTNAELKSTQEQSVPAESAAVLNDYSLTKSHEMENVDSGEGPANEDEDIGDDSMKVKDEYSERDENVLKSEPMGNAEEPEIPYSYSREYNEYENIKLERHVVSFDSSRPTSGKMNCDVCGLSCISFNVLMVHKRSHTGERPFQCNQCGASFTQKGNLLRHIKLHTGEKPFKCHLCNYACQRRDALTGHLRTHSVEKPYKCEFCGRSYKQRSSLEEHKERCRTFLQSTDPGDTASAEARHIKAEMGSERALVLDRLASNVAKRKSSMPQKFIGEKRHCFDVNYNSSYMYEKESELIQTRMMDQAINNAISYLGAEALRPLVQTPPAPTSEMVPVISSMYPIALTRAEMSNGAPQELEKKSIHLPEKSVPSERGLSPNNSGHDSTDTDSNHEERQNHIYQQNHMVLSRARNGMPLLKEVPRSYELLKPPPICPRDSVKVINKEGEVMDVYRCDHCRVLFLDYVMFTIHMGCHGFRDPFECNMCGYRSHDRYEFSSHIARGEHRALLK
T3 sequence (Q96SW2 whole entry): as the sequence (Q96SW2 whole entry) above
T3 sequence (Q16531 whole entry partner): as the sequence (Q16531 whole entry partner) above

Q: What does the source list for Cc1[nH]c2c(-c3cnn(-c4cc(OCCN)ccn4)c3)cnn2c(=O)c1C(C)C [JADA53]?
A: degradation of IKZF / IKZF1 in cell (IKZF1 [1]): can degrade IKZF; also recorded: degraded IKZF; binding of target CRBN in the cell (CRBN [2]): good binding; degradation of IKZF3 in cells (Western Blot) (IKZF3): degraded; degradation of IKZF1 in cells (Western Blot) (IKZF1 [3]): degraded; CRBN binding activity (FP displacement) (CRBN [4]): binds CRBN
